Measured values published in ChEMBL document CHEMBL1764969, “Design, synthesis and structure-activity relationship (SAR) studies of 2,4-disubstituted pyrimidine derivatives: dual activity as cholinesterase and Aβ-aggregation inhibitors” (Bioorg Med Chem, 2011).

Legend:
Butyrylcholinesterase = Butyrylcholinesterase (Equus caballus, UniProt Q9N1N9)
Description: Inhibition of equine BChE incubated with compounf for 5 mins before addition of substrate S-butyrylthiocholine iodide by Ellman's method

Acetylcholinesterase = Acetylcholinesterase (Homo sapiens, UniProt P22303)
Sequence of Acetylcholinesterase (P22303 whole entry): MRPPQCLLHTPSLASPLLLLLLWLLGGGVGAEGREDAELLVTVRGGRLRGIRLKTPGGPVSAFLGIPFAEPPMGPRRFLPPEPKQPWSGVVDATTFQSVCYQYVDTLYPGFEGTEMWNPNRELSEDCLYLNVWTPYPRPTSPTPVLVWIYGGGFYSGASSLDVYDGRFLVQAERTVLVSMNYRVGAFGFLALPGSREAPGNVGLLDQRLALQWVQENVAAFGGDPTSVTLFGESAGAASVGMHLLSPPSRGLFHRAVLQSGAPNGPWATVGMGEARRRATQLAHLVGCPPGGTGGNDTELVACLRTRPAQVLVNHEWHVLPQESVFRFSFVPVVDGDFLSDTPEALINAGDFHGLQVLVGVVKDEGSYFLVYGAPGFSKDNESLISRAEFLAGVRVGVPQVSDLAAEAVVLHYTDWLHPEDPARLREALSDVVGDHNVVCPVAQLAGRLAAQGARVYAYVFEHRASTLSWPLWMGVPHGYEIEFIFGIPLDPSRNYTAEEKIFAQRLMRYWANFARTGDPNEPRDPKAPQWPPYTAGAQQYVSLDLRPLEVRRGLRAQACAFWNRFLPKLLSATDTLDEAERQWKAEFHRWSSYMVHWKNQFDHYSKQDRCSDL
Description: Inhibition of human AChE incubated with compounf for 5 mins before addition of substrate acetylthiocholine iodide by Ellman's method

Sequence of Butyrylcholinesterase (Q9N1N9 whole entry): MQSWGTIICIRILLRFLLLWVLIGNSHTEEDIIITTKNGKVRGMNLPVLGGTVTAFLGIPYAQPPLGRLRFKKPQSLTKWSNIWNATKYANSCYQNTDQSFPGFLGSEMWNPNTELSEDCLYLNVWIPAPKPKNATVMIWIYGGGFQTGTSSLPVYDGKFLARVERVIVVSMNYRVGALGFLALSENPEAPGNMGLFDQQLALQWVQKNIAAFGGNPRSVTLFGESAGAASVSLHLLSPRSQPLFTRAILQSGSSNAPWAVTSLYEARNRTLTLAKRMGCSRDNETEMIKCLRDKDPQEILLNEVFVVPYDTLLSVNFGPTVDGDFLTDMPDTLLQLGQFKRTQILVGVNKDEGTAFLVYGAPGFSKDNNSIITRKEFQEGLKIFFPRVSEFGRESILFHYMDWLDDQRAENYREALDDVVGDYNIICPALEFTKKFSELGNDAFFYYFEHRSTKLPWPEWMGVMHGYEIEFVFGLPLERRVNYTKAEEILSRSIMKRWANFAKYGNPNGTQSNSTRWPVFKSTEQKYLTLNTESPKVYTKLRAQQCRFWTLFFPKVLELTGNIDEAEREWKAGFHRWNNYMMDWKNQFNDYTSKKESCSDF

| Structure (SMILES) | IC50 (Butyrylcholinesterase) [µM] | IC50 (Acetylcholinesterase) [µM] |
| --- | --- | --- |
| CC1CCN(c2nccc(NCc3ccccc3)n2)CC1 | 3.4 | 18.4 |
| c1ccc(CCNc2ccnc(N3CCCC3)n2)cc1 | – | 9.8 |
| c1ccc(CCNc2ccnc(N3CCSCC3)n2)cc1 | > 100 | 26.4 |
| CN1CCN(c2nccc(NCCc3ccccc3)n2)CC1 | > 100 | 20.4 |
| CC1CCN(c2nccc(NCCc3ccccc3)n2)CC1 | 17.7 | 8.8 |
| c1ccc2c(CNc3ccnc(N4CCCC4)n3)cccc2c1 | 8.9 | 5.5 |
| c1ccc2c(CNc3ccnc(N4CCOCC4)n3)cccc2c1 | 28 | 14.7 |
| c1ccc2c(CNc3ccnc(N4CCSCC4)n3)cccc2c1 | – | 12.8 |
| CN1CCN(c2nccc(NCc3cccc4ccccc34)n2)CC1 | 2.6 | 17.5 |
| CN1CCN(c2nccc(NCc3ccccc3)n2)CC1 | > 100 | 24.9 |
| c1ccc(CCNc2ccnc(N3CCOCC3)n2)cc1 | > 100 | 19.7 |
| c1ccc(CNc2ccnc(N3CCCC3)n2)cc1 | 26.4 | 8.7 |
| c1ccc(CNc2ccnc(N3CCOCC3)n2)cc1 | – | 14 |
| c1ccc(CNc2ccnc(N3CCSCC3)n2)cc1 | 6.1 | 23.2 |
| CC(=O)N1CCN(c2nccc(NCc3ccccc3)n2)CC1 | > 100 | 16.6 |
| CC(C)(C)OC(=O)N1CCN(c2nccc(NCc3ccccc3)n2)CC1 | > 100 | 18.8 |
| c1ccc(CNc2ccnc(N3CCN(C4CCCCC4)CC3)n2)cc1 | 7.6 | 22.9 |

| Structure (SMILES) | IC50 (Butyrylcholinesterase) [µM] | IC50 (Acetylcholinesterase) [µM] |
| --- | --- | --- |
| CC(C)N1CCN(c2nccc(NCc3ccccc3)n2)CC1 | 3.4 | 25 |
| CC(C)C1CCN(c2nccc(NCc3ccccc3)n2)CC1 | 6.5 | 14.2 |
| CCCN1CCN(c2nccc(NCc3ccccc3)n2)CC1 | 59.9 | 15.3 |
| OCCN1CCN(c2nccc(NCc3ccccc3)n2)CC1 | > 100 | 26.4 |
| COCCN1CCN(c2nccc(NCc3ccccc3)n2)CC1 | > 100 | 26.7 |
| Clc1ccc(CN2CCN(c3nccc(NCc4ccccc4)n3)CC2)cc1 | 10.7 | 20.2 |
| Brc1ccc(CN2CCN(c3nccc(NCc4ccccc4)n3)CC2)cc1 | 14.3 | 25.5 |
| Fc1ccc(CN2CCN(c3nccc(NCc4ccccc4)n3)CC2)cc1 | 7.3 | 21.6 |
| FC(F)(F)c1ccc(CN2CCN(c3nccc(NCc4ccccc4)n3)CC2)cc1 | > 100 | 28.8 |
| c1ccc(CNc2ccnc(NC3CCN(Cc4ccccc4)CC3)n2)cc1 | 8.2 | 12.4 |
| [O-][S+]1CCN(c2nccc(NCc3ccccc3)n2)CC1 | > 100 | 12.6 |
| O=S1(=O)CCN(c2nccc(NCc3ccccc3)n2)CC1 | > 100 | 24.2 |
| c1ccc(CNc2ccnc(N3CCNCC3)n2)cc1 | > 100 | 15.5 |
| CC(=O)N1CCN(c2nccc(NCCc3ccccc3)n2)CC1 | > 100 | 19.9 |
| CC1CCN(c2nccc(NCc3cccc4ccccc34)n2)CC1 | 2.2 | 25.8 |
| c1ccc2c(NCCCCCCCNc3c4c(nc5ccccc35)CCCC4)c3c(nc2c1)CCCC3 | 0.01 | – |
